# According to US10413505B1, “Pharmaceutical compositions and methods of using the same” (priority 2017, dated 2019):
# Legend:
# [1] = Example 3 plasma pharmacokinetics, normal hepatic function vs hepatic impairment; details: single intranasal 160 mg cocaine HCl, plasma
# [2] = Example 2 plasma pharmacokinetics, normal renal function vs severe renal impairment; details: for AUC(0-t) / AUC(0-inf) / Cmax / Tmax / half-life: both, human, 160 mg
# [3] = normal renal function, single intranasal 160 mg cocaine HCl, plasma
# [4] = severe renal impairment vs normal renal function, ANOVA
# [5] = severe renal impairment, single intranasal 160 mg cocaine HCl, plasma
compound,measurement,setting,value
"COC(=O)[C@H]1[C@@H](OC(=O)c2ccccc2)C[C@@H]2CC[C@H]1N2C [Cocaine, cocaine, reference compound]",Tmax (Max),[1]; hepatic impairment,3.00 h
same,Tmax (Min),[1]; hepatic impairment,7.02 min
same,t1/2 (Geometric mean),[1]; hepatic impairment,4.94 h
same,t1/2 (Max),[1]; hepatic impairment,9.86 h
same,t1/2 (Min),[1]; hepatic impairment,87.6 min
same,AUC0→t (Max),[1]; normal hepatic function,235 ng·h/mL
same,AUC0→t (Min),[1]; normal hepatic function,20.0 ng·h/mL
same,AUC0→∞ (Max),[1]; normal hepatic function,237 ng·h/mL
same,AUC0→∞ (Min),[1]; normal hepatic function,21.7 ng·h/mL
same,Clast (Geometric mean),[1]; normal hepatic function,0.188 ng/mL
same,Clast (Max),[1]; normal hepatic function,0.405 ng/mL
same,Clast (Mean),[1]; normal hepatic function,0.210 ng/mL
same,Clast (Median),[1]; normal hepatic function,0.160 ng/mL
same,Clast (Min),[1]; normal hepatic function,0.102 ng/mL
same,Cmax (Max),[1]; normal hepatic function,75.2 ng/mL
same,Cmax (Min),[1]; normal hepatic function,7.64 ng/mL
same,Tlast (Geometric mean),[1]; normal hepatic function,24.7 h
same,Tlast (Max),[1]; normal hepatic function,32.0 h
same,Tlast (Mean),[1]; normal hepatic function,26.0 h
same,Tlast (Median),[1]; normal hepatic function,28.0 h
same,Tlast (Min),[1]; normal hepatic function,720 min
same,t1/2 (Max),[1]; normal hepatic function,22.5 h
same,t1/2 (Min),[1]; normal hepatic function,110 min
same,"CL/F (Geometric Least Squares Mean, ANOVA)","[2]; Impaired renal function (severe), single intranasal 160 mg cocaine HCl",1333 L/h
same,AUC(0-t),"[2]; plasma, inhaled or intranasal, AUC0→t (Geometric mean), normal renal function, single intranasal 160 mg cocaine HCl",78.7 ng·h/mL
same,AUC(0-t),"[2]; plasma, inhaled or intranasal, AUC0→t (Geometric mean), severe renal impairment, single intranasal 160 mg cocaine HCl",106 ng·h/mL
same,AUC(0-t),"[2]; plasma, inhaled or intranasal, AUC0→t (Mean), normal renal function, single intranasal 160 mg cocaine HCl",83.5 ng·h/mL
same,AUC(0-t),"[2]; plasma, inhaled or intranasal, AUC0→t (Mean), severe renal impairment, single intranasal 160 mg cocaine HCl",119 ng·h/mL
same,AUC(0-t),"[2]; plasma, inhaled or intranasal, AUC0→t (Median), normal renal function, single intranasal 160 mg cocaine HCl",91.6 ng·h/mL
same,AUC(0-t),"[2]; plasma, inhaled or intranasal, AUC0→t (Median), severe renal impairment, single intranasal 160 mg cocaine HCl",109 ng·h/mL
same,AUC(0-inf),"[2]; plasma, inhaled or intranasal, AUC0→∞ (Geometric mean), normal renal function, single intranasal 160 mg cocaine HCl",80.5 ng·h/mL
same,AUC(0-inf),"[2]; plasma, inhaled or intranasal, AUC0→∞ (Geometric mean), severe renal impairment, single intranasal 160 mg cocaine HCl",107 ng·h/mL
same,AUC(0-inf),"[2]; plasma, inhaled or intranasal, AUC0→∞ (Mean), normal renal function, single intranasal 160 mg cocaine HCl",85 ng·h/mL
same,AUC(0-inf),"[2]; plasma, inhaled or intranasal, AUC0→∞ (Mean), severe renal impairment, single intranasal 160 mg cocaine HCl",120 ng·h/mL
same,AUC(0-inf),"[2]; plasma, inhaled or intranasal, AUC0→∞ (Median), normal renal function, single intranasal 160 mg cocaine HCl",92.9 ng·h/mL
same,AUC(0-inf),"[2]; plasma, inhaled or intranasal, AUC0→∞ (Median), severe renal impairment, single intranasal 160 mg cocaine HCl",110 ng·h/mL
same,AUC(0-t),"[2]; plasma, inhaled or intranasal, AUClast (Geometric Least Squares Mean, ANOVA), Impaired renal function (severe), single intranasal 160 mg cocaine HCl",106 ng·h/mL
same,AUC(0-t),"[2]; plasma, inhaled or intranasal, AUClast (Geometric Least Squares Mean, ANOVA), Normal renal function, single intranasal 160 mg cocaine HCl",78.7 ng·h/mL
same,Cmax,"[2]; plasma, inhaled or intranasal, Cmax (Geometric Least Squares Mean, ANOVA), Impaired renal function (severe), single intranasal 160 mg cocaine HCl",47.9 ng/mL
same,Cmax,"[2]; plasma, inhaled or intranasal, Cmax (Geometric Least Squares Mean, ANOVA), Normal renal function, single intranasal 160 mg cocaine HCl",35.9 ng/mL
same,Cmax,"[2]; plasma, inhaled or intranasal, Cmax (Geometric mean), normal renal function, single intranasal 160 mg cocaine HCl",35.9 ng/mL
same,Cmax,"[2]; plasma, inhaled or intranasal, Cmax (Geometric mean), severe renal impairment, single intranasal 160 mg cocaine HCl",47.9 ng/mL
same,Cmax,"[2]; plasma, inhaled or intranasal, Cmax (Mean), normal renal function, single intranasal 160 mg cocaine HCl",38.1 ng/mL
same,Cmax,"[2]; plasma, inhaled or intranasal, Cmax (Mean), severe renal impairment, single intranasal 160 mg cocaine HCl",57.8 ng/mL
same,Cmax,"[2]; plasma, inhaled or intranasal, Cmax (Median), normal renal function, single intranasal 160 mg cocaine HCl",37 ng/mL
same,Cmax,"[2]; plasma, inhaled or intranasal, Cmax (Median), severe renal impairment, single intranasal 160 mg cocaine HCl",55.4 ng/mL
same,Cmax,"[2]; plasma, inhaled or intranasal, Cmax, range observed, renally impaired patients, soaked absorbent articles on nasal mucous membranes",21.9 to 93.7 ng/mL
same,Tmax,"[2]; plasma, inhaled or intranasal, Tmax (Geometric mean), normal renal function, single intranasal 160 mg cocaine HCl",0.518 h
same,Tmax,"[2]; plasma, inhaled or intranasal, Tmax (Geometric mean), severe renal impairment, single intranasal 160 mg cocaine HCl",0.429 h
same,Tmax,"[2]; plasma, inhaled or intranasal, Tmax (Mean), normal renal function, single intranasal 160 mg cocaine HCl",0.583 h
same,Tmax,"[2]; plasma, inhaled or intranasal, Tmax (Mean), severe renal impairment, single intranasal 160 mg cocaine HCl",0.448 h
same,Tmax,"[2]; plasma, inhaled or intranasal, Tmax (Median), severe renal impairment, single intranasal 160 mg cocaine HCl",0.417 h
same,Tmax,"[2]; plasma, inhaled or intranasal, median Tmax, normal renal function, single intranasal 160 mg cocaine HCl",0.5 h
same,half-life,"[2]; plasma, inhaled or intranasal, t1/2 (Geometric mean), normal renal function, single intranasal 160 mg cocaine HCl",4.12 h
same,half-life,"[2]; plasma, inhaled or intranasal, t1/2 (Geometric mean), severe renal impairment, single intranasal 160 mg cocaine HCl",5.42 h
same,half-life,"[2]; plasma, inhaled or intranasal, t1/2 (Mean), normal renal function, single intranasal 160 mg cocaine HCl",5 h
same,half-life,"[2]; plasma, inhaled or intranasal, t1/2 (Mean), severe renal impairment, single intranasal 160 mg cocaine HCl",6.02 h
same,half-life,"[2]; plasma, inhaled or intranasal, t1/2 (Median), normal renal function, single intranasal 160 mg cocaine HCl",3.89 h
same,half-life,"[2]; plasma, inhaled or intranasal, t1/2 (Median), severe renal impairment, single intranasal 160 mg cocaine HCl",6.39 h
same,AUC(0-inf),"[2]; plasma, other: intranasal (drug-soaked pledgets in the nasal cavity), AUCinf, range observed, renally impaired patients",61.2 to 180 ng·h/mL
same,Tmax,"[2]; plasma, other: intranasal (drug-soaked pledgets in the nasal cavity), Tmax, range observed, renally impaired patients",0.301 to 0.595 h
same,"CL/F (Geometric Least Squares Mean, ANOVA)","[2]; normal renal function, single intranasal 160 mg cocaine HCl",1774 L/h
same,AUC0→t (Max),[2]; [3],109.9 ng·h/mL
same,AUC0→t (Min),[2]; [3],34.29 ng·h/mL
same,AUC0→∞ (Max),[2]; [3],110.3 ng·h/mL
same,AUC0→∞ (Min),[2]; [3],37.67 ng·h/mL
same,Clast (Geometric mean),[2]; [3],0.209 ng/mL
same,Clast (Max),[2]; [3],0.626 ng/mL
same,Clast (Mean),[2]; [3],0.263 ng/mL
same,Clast (Median),[2]; [3],0.154 ng/mL
same,Clast (Min),[2]; [3],0.114 ng/mL
same,Cmax (Max),[2]; [3],62.7 ng/mL
same,Cmax (Min),[2]; [3],16.7 ng/mL
same,Tlast (Geometric mean),[2]; [3],20.6 h
same,Tlast (Max),[2]; [3],32.0 h
same,Tlast (Mean),[2]; [3],22.5 h
same,Tlast (Median),[2]; [3],24.0 h
same,Tlast (Min),[2]; [3],720 min
same,Tmax (Max),[2]; [3],1.500 h
same,t1/2 (Max),[2]; [3],10.67 h
same,t1/2 (Min),[2]; [3],124 min
same,"CL/F, percent lower than in normal subjects",[2]; renal impairment vs normal renal function,approximately 25%
same,"plasma exposure (geometric mean Cmax, AUC), percent higher than in normal subjects",[2]; severe renal impairment vs normal renal function,approximately 33%
same,AUClast Ratio Impaired/Normal,[2]; [4],134.46%
same,CL/F Ratio Impaired/Normal,[2]; [4],75.13%
same,Cmax Ratio Impaired/Normal,[2]; [4],133.28%
same,AUC0→t (Max),[2]; [5],221 ng·h/mL
same,AUC0→t (Min),[2]; [5],43.0 ng·h/mL
same,AUC0→∞ (Max),[2]; [5],227 ng·h/mL
same,AUC0→∞ (Min),[2]; [5],44.2 ng·h/mL
same,Clast (Geometric mean),[2]; [5],0.159 ng/mL
same,Clast (Max),[2]; [5],0.432 ng/mL
same,Clast (Mean),[2]; [5],0.186 ng/mL
same,Clast (Median),[2]; [5],0.131 ng/mL
same,Clast (Min),[2]; [5],0.102 ng/mL
same,Cmax (Max),[2]; [5],131.0 ng/mL
same,Cmax (Min),[2]; [5],14.1 ng/mL
same,Tlast (Geometric mean),[2]; [5],26.9 h
same,Tlast (Max),[2]; [5],32.0 h
same,Tlast (Mean),[2]; [5],28.0 h
same,Tlast (Median),[2]; [5],32.0 h
same,Tlast (Min),[2]; [5],720 min
same,t1/2 (Max),[2]; [5],8.65 h
same,t1/2 (Min),[2]; [5],91.8 min
